Where two headings read alike, the source gives them in different places.
Tests used:
[1] = test system: human cholangiocarcinoma-derived cell line HuCC-T1; experiment: Cell viability (CellTiter Glo) of HuCC-T1 in combination with cisplatin; assay type: cell-based; conditions: for viability at 0.0015 µM / viability at 0.0046 µM / viability at 0.0137 µM / viability at 0.0412 µM / viability at 0.1235 µM / viability at 0.3704 µM / viability at 1.1111 µM / viability at 3.3333 µM / viability at 10 µM / IC50: Homo sapiens; for viability at 0.0015 µM / viability at 0.0046 µM / viability at 0.0137 µM / viability at 0.0412 µM / viability at 0.1235 µM / viability at 0.3704 µM / viability at 1.1111 µM / viability at 3.3333 µM / viability at 10 µM: HuCCT-1, 72 h, with cisplatin 10 μmol/L, 3 days; for viability at 0.0015 µM: test substance 1.5 nM; for viability at 0.0046 µM: test substance 4.6 nM; for viability at 0.0137 µM: test substance 13.7 nM; for viability at 0.0412 µM: test substance 41.2 nM; for viability at 0.1235 µM: test substance 123.5 nM; for viability at 0.3704 µM: test substance 370.4 nM; for viability at 1.1111 µM: test substance 1111.1 nM; for viability at 3.3333 µM: test substance 3333.3 nM; for viability at 10 µM: test substance 10000.0 nM; for IC50: HuCCT-1, used in combination with cisplatin (10 μmol/L, Table 8); for CI: combination with cisplatin
From the text: On the combinational effect of the embodiment of the invention, the results of evaluation using a combination index (CI) which is a quantitative index of the combinational effect are shown. The CI can be calculated by the following equation according to Cancer Research, 2010, Vol. 70, pp. 440 to 446.
That is, in a case where the drugs to be used in combination are drug 1 and drug 2, the CI at a certain drug concentration is
CI={(cell viability in case of using drug 1 and drug 2 in combination)/100}/{[(cell viability in case of using drug 1)/100]×[(cell viability in case of using drug 2)/100]}
Evaluation of antitumor activity against human cholangiocarcinoma-derived cell line HuCC-T1 in combination with cisplatin
Furthermore, the antitumor activity against the human cholangiocarcinoma-derived cell line HuCC-T1 in combination with cisplatin was evaluated in the same manner as in Test Example 1.
Gemcitabine, cisplatin, and methanesulfonate of Compound A were used as test substances.
Gemcitabine hydrochloride (manufactured by Plantex Co., Ltd.) dissolved in DMSO was used as gemcitabine. Cisplatin (Cat. #039-20091, manufactured by Wako Pure Chemical Industries, Ltd.) dissolved in serum-free RPMI-1640 medium (Cat. #11875-119, manufactured by Thermo Fisher Scientific Inc.) was used as cisplatin.
Human cholangiocarcinoma cell line HuCC-T1 cells were subcultured in RPMI-1640 medium supplemented with 10% serum (Cat. #10437-028, manufactured by Thermo Fisher Scientific Inc.). During this test, all cell cultures were carried out in a CO2 incubator (set to 37° C. and 5% CO2, saturated with water vapor). The culture was diluted with a 10% serum-supplemented medium to a cell density of 15000 cells/well/100 μL and the cells were seeded on a 96-well plate. On the next day, the culture supernatant of each well was discarded, followed by washing twice with 150 μL of serum-free medium, and 100 μL of serum-free medium was added thereto, followed by culturing for 3 days.
The methanesulfonate of Compound A and gemcitabine were dissolved in DMSO to prepare […] DMSO solutions thereof. The thus-prepared DMSO solutions were diluted sequentially with DMSO to prepare DMSO solutions having a final treatment concentration of 1000-fold dilution. Cisplatin was dissolved in serum-free medium to prepare a cisplatin solution 60 μmol/L. The DMSO diluted solutions of Compound A and gemcitabine were diluted with the cisplatin solution (60 μmol/L) to prepare treatment liquids having a final treatment concentration of 6-fold dilution. Compound A and gemcitabine were used with a maximum concentration of 10 μmol/L at a common ratio of 1/3 and 9 concentrations in combination with cisplatin.
20 μL of Compound A or gemcitabine diluted with the cisplatin solution (60 μmol/L) was added to each well. In addition, a group in which only a solvent containing no drug was added to wells in which cells were seeded (positive control), and a group in which only a solvent containing no drug was added to wells containing only a medium (negative control) were provided. All groups were set to n=3 well.
The cells were cultured for 3 days after the addition of the drug, and the cell viability was evaluated using a CellTiter Glo (registered trademark) Reagent (Cat. #G7570, manufactured by Promega Corporation) with the intracellular ATP level as an index. The concentration that inhibits cell viability by 50% (IC50 value) was calculated using XLFit software Ver.3 (registered trademark, manufactured by CTC Laboratory Systems Corporation).
The cell viability of each well was determined with the luminescence signal level of the negative control being 0% cell viability and the luminescence signal level of the positive control being 100% cell viability. The average value and standard deviation of the cell viability of each treatment group were calculated to prepare Table 8.

[2] = test system: pancreatic cancer patient; conditions: cited from earlier work
[3] = orally administered to mice; cited from earlier work

Nc1ccn([C@@H]2O[C@H](CO)[C@@H](O)C2(F)F)c(=O)n1 [Gemcitabine]
viability at 0.0015 µM [1]: 114%
viability at 0.0046 µM [1]: 113%
viability at 0.0137 µM [1]: 116%
viability at 0.0412 µM [1]: 113%
viability at 0.1235 µM [1]: 116%
viability at 0.3704 µM [1]: 113%
viability at 1.1111 µM [1]: 103%
viability at 3.3333 µM [1]: 83%
viability at 10 µM [1]: 56%
IC50 [1]: ≥ 10000 nM
CI [1]: 0.90
median survival time ([2]; combination with cisplatin): 7.5 months
response rate ([2]; combination with cisplatin): 11.5%
median survival time ([2]; combination with oxaliplatin): 5.7 months
response rate ([2]; combination with oxaliplatin): 9%

Nc1ccn([C@@H]2S[C@H](CO)[C@@H](O)[C@@H]2F)c(=O)n1 [Compound A, 1-(2-deoxy-2-fluoro-4-thio-β-D-arabinofuranosyl)cytosine]
viability at 0.0015 µM [1]: 117%
viability at 0.0046 µM [1]: 114%
viability at 0.0137 µM [1]: 110%
viability at 0.0412 µM [1]: 96%
viability at 0.1235 µM [1]: 66%
viability at 0.3704 µM [1]: 44%
viability at 1.1111 µM [1]: 40%
viability at 3.3333 µM [1]: 36%
viability at 10 µM [1]: 34%
IC50 [1]: 261 nM
CI [1]: 0.34
antitumor activity [3]: potent antitumor activity
